Blank lines part the entries; values can stand above or below the compound they belong to.
Columns and labels:
[1] = target: T1, FKBP (Homo sapiens, UniProt P62942); experiment: Competitive fluorescence polarization (FP) assay of binding to FKBP with fluoresceinated FK506 probe AP1491
T1 construct: made in house

[2] = Pharmacokinetics in nu/nu mice after intravenous administration; type: in vivo
Text: (§1) The accuracy of the dosing solutions was confirmed by HPLC analysis prior to intravenous administration into the tail veins. […] In addition, other control mice, bearing transfected cells, received only the rapamycin vehicle.

[3] = target: T2, FRAP (Homo sapiens, UniProt P42345+P62942); experiment: SEAP reporter assay in HT20-6 cells for binding of rapalog-FKBP complexes to FRAP; type: cell-based; conditions: serial dilutions, 22 hours, FIG. 15
T2 construct: expressed in transfected cells; host or cells: HT20-6 (clone of human HT1080 fibrosarcoma cells)

[4] = tested on: HT1080 cells expressing myristoylated FRAP-FKBP-Fas or (FKBPx2)-Fas chimeras; experiment: Regulated apoptosis of stably transfected HT1080 cells, alamar blue viability; type: cell-based, human
[5] = target: Lex-FKBP and Lex-FRAP proteins (Homo sapiens, UniProt P42345+P62942); experiment: Gel mobility shift assay of rapamycin-dependent DNA binding by Lex-FKBP/Lex-FRAP; type: biochemical; conditions: increasing amounts of rapamycin, FIG. 14 lanes 2-4
[6] = tested on: transfected HT1080 cells; experiment: Rapamycin-dependent production of hGH in nu/nu mice transplanted with transfected HT1080 cells; type: in vivo
Text: To transplant transiently transfected cells into mice, 2×10^6 transfected HT1080 cells, were suspended in 100 _l PBS/0.1% BSA/0.1% glucose buffer, and administered into four intramuscular sites (approximately 25 _l per site) on the haunches and flanks of the animals. Control mice received equivalent volume injections of buffer alone.
as §1
Blood was collected by either anesthetizing or sacrificing mice via CO2 inhalation. Anesthetized mice were used to collect 100 _l of blood by cardiac puncture. The mice were revived and allowed to recover for subsequent blood collections. Sacrificed mice were immediately exsanguinated. Blood samples were allowed to clot for 24 hours, at 4° C., and sera were collected following centrifugation at 1000×g for 15 minutes. Serum hGH was measured by the Boehringer Mannheim non-isotopic sandwich ELISA (Cat No.1 585 878). […] Recommended assay instructions were followed.
Mice were administered transfected HT1080 cells as described above. […] The four remaining doses were given under anesthesia, immediately subsequent to blood collection, at 16, 32, 48, and 64 hours. […]

[7] = target: FRAP (amino acids 2015-2114) displayed on phage with His6-tagged FKBP (Homo sapiens, UniProt P42345+P62942); experiment: Binding enrichment of FRAP display phagemids on His6-flag-FKBP with compound, captured on Ni-NTA agarose; conditions: 1 μM His6-flag-FKBP, 2.5 μl of 100 pM compound in 250 μl, 1 hour
[8] = rapamycin C24 oximes, competitive FP vs AP1491 probe, recombinant FKBP
[9] = C7 rapalog experiment, competitive FP

T1 sequence (P62942 whole entry): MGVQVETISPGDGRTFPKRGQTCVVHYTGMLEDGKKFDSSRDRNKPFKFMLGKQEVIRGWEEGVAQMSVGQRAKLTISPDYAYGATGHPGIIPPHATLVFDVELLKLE
T2 sequence (P42345 2025-2113): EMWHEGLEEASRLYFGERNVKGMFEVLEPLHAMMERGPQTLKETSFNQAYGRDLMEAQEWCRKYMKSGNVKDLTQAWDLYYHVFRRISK
T2 sequence (P62942 2-108): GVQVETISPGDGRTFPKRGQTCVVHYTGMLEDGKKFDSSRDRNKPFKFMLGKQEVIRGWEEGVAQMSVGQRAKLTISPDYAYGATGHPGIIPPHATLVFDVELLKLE
Sequence of FRAP (amino acids 2015-2114) displayed on phage with His6-tagged FKBP (P42345 2015-2114): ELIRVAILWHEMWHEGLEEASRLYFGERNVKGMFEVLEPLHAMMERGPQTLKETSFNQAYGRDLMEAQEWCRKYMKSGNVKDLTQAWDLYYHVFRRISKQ
Sequence of FRAP (amino acids 2015-2114) displayed on phage with His6-tagged FKBP (P62942 with tags, fused parts or gaps): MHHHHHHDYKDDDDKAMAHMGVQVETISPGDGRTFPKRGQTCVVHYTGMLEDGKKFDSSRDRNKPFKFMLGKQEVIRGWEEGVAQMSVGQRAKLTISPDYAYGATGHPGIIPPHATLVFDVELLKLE
Sequence of Lex-FKBP and Lex-FRAP proteins (P62942 2-108): as the sequence (P62942 2-108) above
Sequence of Lex-FKBP and Lex-FRAP proteins (P42345 2025-2113): as the sequence (P42345 2025-2113) above

Compound: COC1CC2CCC(C)C(O)(O2)C(=O)C(=O)N2CCCCC2C(=O)OC(C(C)CC2CCC(O)C(OC)C2)CC(=NOCC(=O)O)C(C)C=C(C)C(O)C(OC)C(=O)C(C)CC(C)C=CC=CC=C1C (stereo not drawn) [AP1686, Rapamycin (E and Z)-24-(O-carboxymethyloxime)]
- fold loss in affinity (=IC50/IC50 of rapamycin) ([1]; C24 oxime experiment): 1620
- IC50 [1, 8]: 16200 nM

Compound: hGH: human growth hormone secreted by the engineered cells (reporter gene product)
- half-life of clearance from the circulation [2]: less than four minutes

Compound: CO[C@@H]1CC(C[C@@H](C)C2CC(=O)[C@H](C)/C=C(\C)[C@@H](O)[C@@H](OC)C(=O)[C@H](C)C[C@H](C)/C=C/C=C/C=C(\C)[C@@H](OC(C)C)C[C@@H]3CC[C@@H](C)[C@@](O)(O3)C(=O)C(=O)N3CCCC[C@H]3C(=O)O2)CC[C@H]1O (stereo partly drawn) [AP1700, 7S-isopropoxyrapamycin]
- fold loss in affinity (=IC50/IC50 of rapamycin) ([1]; C7 rapalog experiment): 2.5
- IC50 [1, 9]: 17.8 nM
- FRAP affinity as indicated by SEAP production [3]: modest reduction in FRAP affinity

Compound: CCC(C)(C)C(=O)C(=O)N1CCCCC1C(=O)O[C@H](CCc1ccc(OC)c(OC)c1)c1cccc(OCC(=O)NCCOCCNC(=O)COc2cccc([C@@H](CCc3ccc(OC)c(OC)c3)OC(=O)C3CCCCN3C(=O)C(=O)C(C)(C)CC)c2)c1 (stereo partly drawn) [AP1428]
- extent of cell death of cells expressing a myristoylated (FKBPx2)-Fas construct, relative to rapamycin on M30/M31 cells ([4]; FIG. 13(c)): comparable

Compound: COC1CC(CC(C)C2CC(=O)C(C)C=C(C)C(O)C(OC)C(=O)C(C)CC(C)C=CC=CC=C(C)C(c3c[nH]c4ccccc34)CC3CCC(C)C(O)(O3)C(=O)C(=O)N3CCCCC3C(=O)O2)CCC1O (stereo not drawn) [AP1702, 7S-(3-indolyl)rapamycin]
- fold loss in affinity (=IC50/IC50 of rapamycin) ([1]; C7 rapalog experiment): 3.0
- IC50 [1, 9]: 24.5 nM
- FRAP affinity as indicated by SEAP production [3]: almost completely abolish SEAP expression

Compound: COC1CC2CCC(C)C(O)(O2)C(=O)C(=O)N2CCCCC2C(=O)OC(C(C)CC2CCC(O)C(OC)C2)CC(=NOCC(=O)O)C(C)C=C(C)C(O)C(OC)C(=O)C(C)CC(C)C=CC=CC=C1C (stereo not drawn) [AP1687, Rapamycin (E and Z)-24-(O-carboxymethyloxime)]
- fold loss in affinity (=IC50/IC50 of rapamycin) ([1]; C24 oxime experiment): 813

Compound: CO[C@H]1C[C@@H]2CC[C@@H](C)[C@@](O)(O2)C(=O)C(=O)N2CCCC[C@H]2C(=O)O[C@H]([C@H](C)C[C@@H]2CC[C@@H](O)[C@H](OC)C2)CC(=O)[C@H](C)/C=C(\C)[C@@H](O)[C@@H](OC)C(=O)[C@H](C)C[C@H](C)/C=C/C=C/C=C/1C [rapamycin, Rapamycin]
- formation of specific protein-DNA complex [5]: concomitant appearance of a specific complex
- serum hGH production vs dose ([6]; 0.01-10.0 mg/kg i.v., 17 hours after administration, FIG. 6): dose-responsive production of hGH
- time of peak serum hGH after treatment ([6]; single 10.0 mg/kg i.v. dose, FIG. 7): peaked at eight hours
- effect on survival of cells not expressing mixed chimeric proteins ([4]; FIG. 13(c)): minimal effects
- survival of cells stably transfected with M30 and M31-expressing constructs ([4]; with 50 ng/ml actinomycin D, about 20 hours, FIG. 13(a),(b)): potently reduced
- enrichment of FRAP phage compared to the starting mixture [7]: 271 fold

Results, then the compound that gave them:

- fold loss in affinity (=IC50/IC50 of rapamycin) ([1]; C24 oxime experiment): 304
- IC50 [1, 8]: 2400 nM
Compound: COC1CC2CCC(C)C(O)(O2)C(=O)C(=O)N2CCCCC2C(=O)OC(C(C)CC2CCC(O)C(OC)C2)CC(=NOCC(N)=O)C(C)C=C(C)C(O)C(OC)C(=O)C(C)CC(C)C=CC=CC=C1C (single isomer, unassigned) [AP1729, Rapamycin (E and Z)-24-(O-carboxamidomethyloxime)]

- fold loss in affinity (=IC50/IC50 of rapamycin) ([1]; C7 rapalog experiment): 20.8
- fold loss in affinity (=IC50/IC50 of rapamycin) ([1]; C24 oxime experiment): 18.6
Compound: C14-desoxo-rapamycin [reference compound]

- fold loss in affinity (=IC50/IC50 of rapamycin) ([1]; C24 oxime experiment): 40.5
- IC50 [1, 8]: 320 nM
Compound: COC1CC2CCC(C)C(O)(O2)C(=O)C(=O)N2CCCCC2C(=O)OC(C(C)CC2CCC(O)C(OC)C2)CC(=NOCC(N)=O)C(C)C=C(C)C(O)C(OC)C(=O)C(C)CC(C)C=CC=CC=C1C (single isomer, unassigned) [AP1730, Rapamycin (E and Z)-24-(O-carboxamidomethyloxime)]

- enrichment of FRAP phage compared to the starting mixture [7]: 2.4 fold
Compound: C=CC[C@@H]1/C=C(\C)C[C@H](C)C[C@H](OC)[C@H]2O[C@@](O)(C(=O)C(=O)N3CCCC[C@H]3C(=O)O[C@H](/C(C)=C/[C@@H]3CC[C@@H](O)[C@H](OC)C3)[C@H](C)[C@@H](O)CC1=O)[C@H](C)C[C@@H]2OC [FK506]

From patent US20030206891A1, “Rapamycin-based biological regulation” (ARIAD Gene Therapeutics, Inc., priority 1995, published 2003)
